How the values were obtained:
[1] = target: T1, Indoleamine 2,3-dioxygenase 1 (Homo sapiens, UniProt P14902); assay: Inhibition of IDO1 in human whole blood assessed as unbound concentration; type: tissue-based
[2] = MRT in Beagle dog at 0.05 mg/kg, iv; type: ADME, organism-based, Canis lupus familiaris; settings: in vivo
[3] = target: T1, Indoleamine 2,3-dioxygenase 1; assay: Inhibition of IDO1 in human HeLa cells assessed as production of N-formylkynurenine using tryptophan as substrate in presence of inactivated fetal bovine serum; type: cell-based
[4] = target: T1, Indoleamine 2,3-dioxygenase 1; assay: Inhibition of IDO1 in human whole blood; type: tissue-based
[5] = Clearance in Beagle dog at 0.05 mg/kg, iv; type: ADME, organism-based, Canis lupus familiaris; settings: in vivo
[6] = Clearance in male Wistar Han rats at 0.05 mg/kg, iv; type: ADME, organism-based; settings: rat, in vivo
[7] = MRT in male Wistar Han rat at 0.05 mg/kg, iv; type: ADME, organism-based; settings: male, Wistar Han, in vivo, read-out: MRT
[8] = Unbound clearance in Beagle dog at 0.05 mg/kg, iv; type: ADME, organism-based, Canis lupus familiaris; settings: in vivo
[9] = Unbound clearance in male Wistar Han rat at 0.05 mg/kg, iv; type: ADME, organism-based; settings: in vivo

T1 sequence (P14902 whole entry): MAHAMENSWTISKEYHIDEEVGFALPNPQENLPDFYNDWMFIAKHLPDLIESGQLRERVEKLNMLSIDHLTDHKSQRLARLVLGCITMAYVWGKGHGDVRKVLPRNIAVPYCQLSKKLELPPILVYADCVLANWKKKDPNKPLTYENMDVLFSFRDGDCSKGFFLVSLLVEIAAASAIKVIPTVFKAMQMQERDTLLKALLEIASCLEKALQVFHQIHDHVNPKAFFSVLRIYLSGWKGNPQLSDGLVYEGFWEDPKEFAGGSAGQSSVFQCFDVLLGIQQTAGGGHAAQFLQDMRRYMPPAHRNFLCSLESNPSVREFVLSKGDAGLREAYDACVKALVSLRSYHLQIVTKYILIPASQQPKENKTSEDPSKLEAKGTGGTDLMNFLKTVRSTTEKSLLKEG

IC50 [1]: 0.73 nM | MRT [2]: 8.1 h | IC50 [3]: 1.9 nM | IC50 [4]: 43 nM | clearance [5]: 9 mL/min/kg | clearance [6]: 22 mL/min/kg | MRT [7]: 2.9 h | CL free [8]: 727 mL/min/kg | CL free [9]: 1613 mL/min/kg
SMILES: CC(C(=O)Nc1ccc(Cl)cc1)N1CCC2C(CCCN2C(=O)OC2CC2)C1 (stereo in doubt; 27)
